SMILES strings stand for the structures. Numbered stars: 1 amine (or outer) side, 2 acyl side, 3 side chain; on linkers, the order of the positions; unused ones are H or OH. Bridge positions count the residues as written; N and C are the ends. Square brackets hold non-standard residues; d marks the D form. Peptide text beside a SMILES is read from it. I, II: the chains in the order shown. * marks the point of attachment. X1 = CCCCCCCCCCCCCCCCCOCCOCCOCCOCCOCCOCCOCCOCCOCCOCCOCCOCCOCCC(=O)*; CO(CH2CH2O)5CH2CH2CO = O=C(CCOCCOCCOCCOCCOCCC(=O)[*:2])[*:1]

In general, koff refers to a measure of how fast the partners let go of each other. The kon is the rate constant with which the complex forms.

In data set [1] the test system is antibody-sensitized human erythrocytes. In words: Enhancement of CDC lysis assay (complement dependent cytotoxicity) in antibody-sensitized erythrocytes. Format: cell-based. As to the method:
Figure 5 CP‐06 and optimized analogues control CD59 activity in cellular assays. a) ILY lysis assay. SK‐BR‐3 cells were treated with CP‐06 (n = 4) or CP‐06[W3A] (n = 2), then with Sytox green dye and ILY ([…]). The plate was imaged immediately with the IncuCyte S3 Live Cell Analysis System and then every hour up to 14 h. The linear phase of lysis was taken from each well, and linear regression was performed to extract individual slope values, which were then normalized to maximum lysis rate (Sytox and ILY) vs. 0% lysis (Sytox only) within each plate. […] Human erythrocytes were sensitized with 1% w/v anti‐human erythrocyte Ab with 5% v/v human serum in the presence of a serial dilution of CP‐06C18 (black bars) or CP‐06scrmb‐C18 (red bars) Percent lysis enhancement was calculated by normalization to 0% enhancement (buffer well) and plotted as the mean of three biological replicates ± SEM. […]
Enhancement of CDC lysis assay: A 50% (v/v) erythrocyte stock suspension was prepared as described above. […] The following controls were included: (1) a positive control which contained Tween-20 (Cf = 1%), (2) a negative control well that contained PBS, and (3) a vehicle only well that contained PBS without erythrocytes to subtract the absorbance of the vehicle. […]

The next data set has as its system SK-BR-3 cells. In words: ILY lysis assay (Sytox green, IncuCyte) in SK-BR-3 cells. The format is cell-based, human. The method, then: Figure 5 CP‐06 and optimized analogues control CD59 activity in cellular assays. a) ILY lysis assay. SK‐BR‐3 cells were treated with CP‐06 (n = 4) or CP‐06[W3A] (n = 2), then with Sytox green dye and ILY ([…]). The plate was imaged immediately with the IncuCyte S3 Live Cell Analysis System and then every hour up to 14 h. The linear phase of lysis was taken from each well, and linear regression was performed to extract individual slope values, which were then normalized to maximum lysis rate (Sytox and ILY) vs. 0% lysis (Sytox only) within each plate. […] Human erythrocytes were sensitized with 1% w/v anti‐human erythrocyte Ab with 5% v/v human serum in the presence of a serial dilution of CP‐06C18 (black bars) or CP‐06scrmb‐C18 (red bars) Percent lysis enhancement was calculated by normalization to 0% enhancement (buffer well) and plotted as the mean of three biological replicates ± SEM.
Determination of optimal ILY concentration: 20,000 SK-BR-3 cells were seeded in a 96-well plate (Grenier, 655180) 24 h before treatment. […] Any bubbles were removed by a de-bubbler and the plate was immediately transferred to IncuCyte® S3 Live Cell Analysis System where each well was imaged 4 times at 10 × magnification with phase contrast and green fluorescence (λex 440–480 nm, λem = 504–544 nm) every hour for 24 h. […]

The target of another data set is T1, CD59 (Homo sapiens, UniProt P13987).
T1 construct: Recombinant soluble human CD59 with an additional C-terminal cysteine residue
T1 sequence (P13987 26-102 limits assumed): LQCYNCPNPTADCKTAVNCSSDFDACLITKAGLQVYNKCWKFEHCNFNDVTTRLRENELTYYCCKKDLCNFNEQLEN
In words: SPR (Biacore S200) binding to immobilised biotinylated CD59. The following applies: SPR, immobilized CD59. The source says: To identify which of these peptides bound CD59 most tightly, we used a Biacore S200 surface plasmon resonance (SPR) platform to investigate CD59 affinity (Figure 2b), using a known protein binding partner of CD59 (rILYd4) as a benchmark. Four 13‐mer macrocyclic peptides and one 14‐mer macrocyclic peptide were identified with a dissociation constant (K D) lower than that of rILYd4. Considering their fourfold lower molecular weight, these peptides bind with up to 19‐fold greater efficiency compared to rILYd4 (Figure 2b).
Equipment: SPR analysis was performed on a Cytiva Biacore S200. All buffers were prepared using ultra-pure water from a Millipore Elix Q-Gard purification system. Solutions and buffers were filtered with a 0.22 μm filter and degassed prior to use. The assays were performed on Series S streptavidin (SA) sensor chip (Cytiva). PBS-P+ buffer 10X (0.2 M phosphate buffer with 27 mM KCl, 1.37 M NaCl and 0.5% Surfactant P20 (Tween 20)) was used for the preparation of the assay running buffer (PBS-P+ 1X).
Immobilisation of CD59-biotin: Biotinylated CD59 was immobilised on the surface of a SA chip by non-covalent capture (biotin streptavidin interaction) as per the manufacturer’s instructions. The system was initially primed with running buffer and normalised using BIAnormalizing solution (70% (w/w) glycerol) (Cytiva). Before immobilising the protein, the surface was conditioned with three consecutive one-minute injections of 1 M NaCl in 50 mM NaOH. Biotinylated CD59 (0.5 µg/mL in running buffer) was flowed over the protein (active) channel for different contact times to achieve different immobilisation levels (600–1200 RU). After each protein injection, the needle and injection loop were washed using 50% isopropanol in 1 M NaCl and 50 mM NaOH. A reference channel was prepared by similar treatment; however, running buffer alone rather than CD59-biotin in running buffer was flowed over the chip the same way.
Interaction analysis: Multicycle kinetic and affinity approach was used for the analysis of peptides interactions with CD59. Two-fold serial dilutions of each peptide were prepared in running buffer and were flowed over both the ligand and reference channel using a flow rate (30 μL/min) at 25 °C. A zero concentration was added to each analyte series and three cycles of buffer were run between analytes to restore the baseline. The obtained sensorgrams were analysed using the embedded Biacore S200 Evaluation software. The data were normalised by subtracting RU values of the reference channel and zero concentration of the analyte series. Kinetic rate constants (kon and koff) were determined by fitting the normalised data using the built-in Kinetic analysis model (non-linear regression with a 1:1 Langmuir binding model), KD values were then calculated from the two rate constants ([…]). The KD values were determined again by fitting the normalised data using the built-in Affinity analysis model (1:1 Langmuir binding model).
On the technique in general: In SPR one partner is held on a chip, and binding of the other changes the refractive index at the surface.

A short description of data set [2]: Solubility and aggregation behaviour of hit peptides (stated in words). The format is physicochemical.

For `CCCCCCCCCCCCCCCCCOCCOCCOCCOCCOCCOCCOCCOCCOCCOCCOCCOCCOCCC(=O)NCCCC[C@H](NC(=O)CNC(=O)[C@@H]1CSCC(=O)N[C@H](Cc2ccc(O)cc2)C(=O)N[C@@H](CO)C(=O)N[C@@H](Cc2c[nH]c3ccccc23)C(=O)N[C@@H]([C@@H](C)O)C(=O)N[C@@H](Cc2c[nH]c3ccccc23)C(=O)NCC(=O)N[C@@H](CC(N)=O)C(=O)N[C@@H](CCCNC(=N)N)C(=O)N[C@@H](CO)C(=O)N[C@@H](CO)C(=O)N[C@@H](C(C)C)C(=O)N[C@@H](CCCNC(=N)N)C(=O)NCC(=O)N1)C(=O)NCC(N)=O` [CP-06C18] ({CH2CO}-[dY]SWTWGNRSSVRGCGK(X1)G-NH2; thioether N-14), the “enhancement of mAb-mediated CDC (in words)” value in data set [1] (anti-RBC antibody, 5% human serum) was “enhanced mAb‐mediated CDC in a dose‐dependent manner”. Also, the “lysis in the absence of anti-RBC (in words)” value in data set [1] (no anti-RBC antibody, Figure S4) is listed as “Neither peptide caused lysis above background”.

In the case of `CC(C)[C@@H]1NC(=O)[C@H](CO)NC(=O)[C@H](CO)NC(=O)[C@H](CCCNC(=N)N)NC(=O)[C@H](CC(N)=O)NC(=O)CNC(=O)[C@H](Cc2c[nH]c3ccccc23)NC(=O)[C@H]([C@@H](C)O)NC(=O)[C@H](Cc2c[nH]c3ccccc23)NC(=O)[C@H](CO)NC(=O)[C@@H](Cc2ccc(O)cc2)NC(=O)CSC[C@@H](C(=O)NCC(=O)N[C@@H](CCCCNC(=O)CCOCCOCCOCCOCCOCCC(=O)NCCCC[C@H](NC(=O)CNC(=O)[C@@H]2CSCC(=O)N[C@H](Cc3ccc(O)cc3)C(=O)N[C@@H](CO)C(=O)N[C@@H](Cc3c[nH]c4ccccc34)C(=O)N[C@@H]([C@@H](C)O)C(=O)N[C@@H](Cc3c[nH]c4ccccc34)C(=O)NCC(=O)N[C@@H](CC(N)=O)C(=O)N[C@@H](CCCNC(=N)N)C(=O)N[C@@H](CO)C(=O)N[C@@H](CO)C(=O)N[C@@H](C(C)C)C(=O)N[C@@H](CCCNC(=N)N)C(=O)NCC(=O)N2)C(=O)NCC(N)=O)C(=O)NCC(N)=O)NC(=O)CNC(=O)[C@H](CCCNC(=N)N)NC1=O` [CP-06dimer] (I: {CH2CO}-[dY]SWTWGNRSSVRGCGKG-NH2 / II: {CH2CO}-[dY]SWTWGNRSSVRGCGKG-NH2; linker I:16-II:16 via CO(CH2CH2O)5CH2CH2CO; thioether I:N-I:14, II:N-II:14), the “inhibition of ILY lysis (in words)” value in the data set with SK-BR-3 cells was “completely inhibits ILY lysis”.

Take `CC(C)[C@@H]1NC(=O)[C@H](CO)NC(=O)[C@H](CO)NC(=O)[C@H](CCCNC(=N)N)NC(=O)[C@H](CC(N)=O)NC(=O)CNC(=O)[C@H](Cc2c[nH]c3ccccc23)NC(=O)[C@H]([C@@H](C)O)NC(=O)[C@H](Cc2c[nH]c3ccccc23)NC(=O)[C@H](CO)NC(=O)[C@@H](Cc2ccc(O)cc2)NC(=O)CSC[C@@H](C(N)=O)NC(=O)CNC(=O)[C@H](CCCNC(=N)N)NC1=O` [CP-06] (HELM PEPTIDE1{[O=C(C[*:3])[*:2]].[dY].S.W.T.W.G.N.R.S.S.V.R.G.C.[am]}$PEPTIDE1,PEPTIDE1,1:R3-15:R3$$$V2.0): the dissociation rate constant (koff) at CD59 (read-out: Koff (dissociation rate constant)) came out at 0.0204 s⁻¹. Besides, the kon at CD59 (read-out: Kon (association rate constant)) was determined as 1.86e+06 M⁻¹ s⁻¹. In addition, in data set [2], the “solubility (in words)” value is on record as “good solubility”.

These data come from PMC12207370, “Macrocyclic Peptide Probes for Immunomodulatory Protein CD59: Potent Modulators of Bacterial Toxin Activity and Antibody‐Dependent Cytotoxicity” (Angewandte Chemie (International Ed. in English), 2025).
